This note sets out measurements from PubChem BioAssay AID1949 (Southern Research Institute, 2009).

Structures are written as SMILES. ≈ marks a conversion by molar mass, not a printed value. Inconclusive results are not listed. Calls of active or inactive are those of the source. How the calls were made is not given here.

This assay has as its system M. tuberculosis H37Rv growth inhibition. The assay can be described thus: Confirmatory growth inhibition assay against Mycobacterium tuberculosis H37Rv, potency (AID 1949).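 Further: bacteria grown 7 days with compound before Alamar blue readout.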

On to `O=C(NCCCn1ccnc1)c1cc(-c2ccc(Br)cc2)nc2ccccc12`, for which the IC50 (in general, the concentration that inhibits the measured activity by half) was 9.43 µg/mL (≈ 21.7 µM).

For `CCOc1ccc(Nc2nc(NCc3ccco3)c3ccccc3n2)cc1`, the half-inhibitory concentration (IC50) was 1.36 µg/mL (≈ 3.77 µM). To `COC(=O)COc1ccc2cc(-c3ccc(OC)c(OC)c3)c(=O)oc2c1` belongs 1.03 µg/mL (≈ 2.78 µM); to `Oc1ccc(/C=C/c2nc(-c3ccccc3O)n(-c3ccccc3)n2)cc1`, 5.63 µg/mL (≈ 15.8 µM); to `Clc1cccc(Nc2nc(NCc3ccco3)c3ccccc3n2)c1`, 1.05 µg/mL (≈ 2.99 µM).

Consider `CCC(C)Oc1c(Cl)cc(/C=C\[N+](=O)[O-])cc1OC` (stereo not given), for which the IC50 is > 50 µg/mL (inactive). On to `Cc1ccccc1N1C(=O)NC(=O)/C(=C\c2ccc([N+](=O)[O-])s2)C1=O`, for which the IC50 was 6.22 µg/mL (≈ 17.4 µM). To `Cc1ccc(-n2c(=O)oc3ccc(Cl)cc3c2=O)cc1Cl` belongs 1.08 µg/mL (≈ 3.35 µM); to `O=[N+]([O-])/C=C/c1cccn1-c1ccc(Cl)cc1`, 9.66 µg/mL (≈ 38.8 µM); to `N#Cc1c(C(F)(F)F)cc(-c2cccs2)nc1SCC(O)CN1CCSCC1` (stereo not given), 10.9 µg/mL (≈ 24.6 µM). For `c1ccc2c(N3CCCCC3)nc(N3CCCC3)nc2c1` the value was 40.4 µg/mL (≈ 143 µM); for `Cc1cccc(NC(=O)c2cc3cc([N+](=O)[O-])ccc3oc2=O)c1`, > 50 µg/mL (inactive). For `COc1cc([N+](=O)[O-])ccc1NC(=S)Nc1ccc(F)c(Cl)c1` the value was 2.76 µg/mL (≈ 7.76 µM); for `O=C(CCN1C(=O)C2C3C=CC(C3)C2C1=O)Oc1cccc2cccnc12` (stereo not given), 14.8 µg/mL (≈ 40.7 µM). As for `COc1cccc(NC(=O)CSc2nnc(-c3ccc(Br)cc3)o2)c1`, the IC50 was 3.12 µg/mL (≈ 7.42 µM). Consider `Cc1cc(C)nc(/N=C(\N)Nc2cc(Cl)ccc2Cl)n1`, for which the IC50 is 12.3 µg/mL (≈ 39.7 µM). As to `CC1CCc2nc(NC(=S)NCc3ccco3)sc2C1` (stereo not given), the IC50 was 3.09 µg/mL (≈ 10.1 µM).

On to `FC(F)(F)c1cccc(-n2cc(-c3ccccc3)c3c(NCc4cccnc4)ncnc32)c1`, for which the IC50 is 1.51 µg/mL (≈ 3.39 µM). Regarding `CCc1cc2c(=O)c(-c3ccc4c(c3)OCCO4)coc2cc1OCC(=O)OC(C)C`, the IC50 is 5.83 µg/mL (≈ 13.7 µM). Consider `COc1ccc(-c2csc(Nc3ccc(S(N)(=O)=O)cc3)n2)cc1`, for which the IC50 was 3.73 µg/mL (≈ 10.3 µM). To `N#Cc1cc(Oc2ccc(OCc3ccccc3)cc2)c([N+](=O)[O-])cc1C#N` belongs less than 0.1 µg/mL. For `O=[N+]([O-])c1nn(-c2ccccc2)[n+]([O-])c1N1CCCC1` the value was 11.9 µg/mL (≈ 43.1 µM); for `O=C(CCNc1cccc(Cl)c1)c1ccco1`, 3.68 µg/mL (≈ 14.7 µM). Consider `c1ccc(CCNc2nc3ccccc3[nH]2)cc1`, for which the IC50 was 2.94 µg/mL (≈ 12.4 µM). Consider `C=CCn1c(-c2cccs2)nc2ccccc21`, for which the IC50 is 1.86 µg/mL (≈ 7.74 µM). On to `COc1ccc(C)cc1NC(=O)c1ccc(CN2CCC(Cc3ccccc3)CC2)cc1`, for which the IC50 is 3.36 µg/mL (≈ 7.84 µM). Take `CC(C)(C)C(=O)NC(=S)NNC(=O)C(c1ccccc1)c1ccccc1`: the IC50 was 3.01 µg/mL (≈ 8.15 µM).

As to `Cc1[nH]n(-c2ccccc2)c(=S)c1C=Nc1ccccc1O`, the IC50 is 2.35 µg/mL (≈ 7.6 µM). Turning to `O=[N+]([O-])/C=C/c1cccn1-c1ccc(F)cc1`, the IC50 is 7.57 µg/mL (≈ 32.6 µM). To `CC(=O)Oc1cc2c(cc1Cl)C1(CC(c3ccccc3Cl)O2)CC(C)(C)NC(=S)N1` (stereo not given) belongs 2.84 µg/mL (≈ 6.1 µM); to `COC(=O)COc1ccc(NC(=O)c2ccc(-c3ccccc3)cc2)cc1`, less than 0.1 µg/mL; to `CC(C)C(=O)N1CCN(c2ccc(NC(=O)c3ccc([N+](=O)[O-])o3)cc2)CC1`, 0.21 µg/mL (≈ 0.543 µM). For `O=C(CSc1n[nH]c(-c2ccc(Cl)cc2)n1)Nc1ccccc1Cl` the value was 4.21 µg/mL (≈ 11.1 µM); for `COC(=O)C(C)Sc1nnc(-c2ccc(Br)cc2)o1` (stereo not given), 0.99 µg/mL (≈ 2.88 µM). With `Cc1ccc(Cl)cc1N1CCN(CC(O)COc2ccc(Cl)cc2Cl)CC1` (stereo not given), the IC50 was 6.67 µg/mL (≈ 15.5 µM). To `COc1ccc2nc(C)cc(Nc3ccccc3O)c2c1` belongs 8.28 µg/mL (≈ 29.5 µM); to `COc1ccc(NC(=O)CC23CC4CC(CC(C4)C2)C3)cc1[N+](=O)[O-]`, 3.05 µg/mL (≈ 8.86 µM); to `O=C(Nc1ccc(Cl)c(C(F)(F)F)c1)c1ccc2c(c1)OCO2`, > 50 µg/mL (inactive). Take `CCn1cc(C(=O)O)c(=O)c2cc(F)c(N3CCN(C(=S)Nc4ccc(Cl)cc4)CC3)cc21`: the IC50 was 24.1 µg/mL (≈ 49.3 µM). For `CC(C)(C)c1ccc(OCCN2C(=O)C(=O)c3cc(Br)ccc32)cc1` the value was 1.49 µg/mL (≈ 3.7 µM); for `Cc1ccc(-c2nn(-c3ccccc3)cc2CNCc2ccccc2)o1`, 9.25 µg/mL (≈ 26.9 µM). For `CCOC(=O)COc1ccc2c(=O)c(Oc3cnn(-c4ccccc4)c3)c(C)oc2c1` the value was 0.61 µg/mL (≈ 1.45 µM); for `COC(=O)COc1ccc(NC(=O)COc2ccc(C)cc2C)cc1`, less than 0.1 µg/mL; for `COc1ccc2nc(/C(C#N)=C\c3cccn3-c3ccccc3F)[nH]c2c1`, 4.8 µg/mL (≈ 13.4 µM). Turning to `O=C1c2cccc3cccc(c23)C(=O)N1CCN1CCN(CC(O)COc2ccccc2Cl)CC1` (stereo not given), the IC50 is 2.93 µg/mL (≈ 5.93 µM). With `O=C(Nc1cccnc1)c1ccc2c(c1)C1C3CCC(C3)C1C(c1ccccc1)N2` (stereo not given), the IC50 is 37.5 µg/mL (≈ 94.8 µM). Take `O=S(=O)(CCSc1nc2ccccc2s1)c1nc2ccccc2s1`: the IC50 was 7.23 µg/mL (≈ 18.4 µM). For `Cc1ccc(C(=O)Nc2ccc(N3CCN(C)CC3)cc2)cc1Cl` the value was 46.2 µg/mL (≈ 134 µM). For `O=S(=O)(Nc1cc(Sc2cccc3cccnc23)c(O)c2ccccc12)c1ccccc1` the value was 0.18 µg/mL (≈ 0.393 µM); for `Cc1ccc(C2CC(c3cc(Br)ccc3O)=NN2)cc1` (stereo not given), 3.46 µg/mL (≈ 10.4 µM). Consider `COc1ccc(C(=O)O/N=C(\N)Cc2ccc(Cl)c(Cl)c2)cc1OC`, for which the IC50 was 9.32 µg/mL (≈ 24.3 µM). As for `Cc1nc2c(o1)C1(C(=O)N2C)C(C#N)=C(N)N(c2ccccc2)c2ccccc21` (stereo not given), the IC50 was 6.25 µg/mL (≈ 16.3 µM). Turning to `Cc1cc(NC(=O)c2ccc([N+](=O)[O-])o2)c(C)cc1I`, the IC50 was 0.46 µg/mL (≈ 1.19 µM).

Regarding `COC(=O)c1sc(NC(=O)c2c(F)c(F)c(F)c(F)c2F)c(C(N)=O)c1C`, the half-maximal inhibitory concentration (IC50) is less than 0.1 µg/mL.

In the case of `O=S(=O)(CCSc1nc2ccccc2o1)c1nc2ccccc2s1`, the IC50 is 11.1 µg/mL (≈ 29.5 µM).

For `Cc1cc(C)n(-c2nc3sc4c(c3c(=O)[nH]2)CCCC4)n1`, the IC50 is 24.4 µg/mL (≈ 81.1 µM). To `COC(=O)C(C)Oc1ccc2c(=O)c(Oc3ccccc3Br)coc2c1` (stereo not given) belongs 2.96 µg/mL (≈ 7.06 µM); to `Cc1nc(SCc2csc(C)n2)c2c3c(sc2n1)CCCC3`, 1.61 µg/mL (≈ 4.63 µM). With `Cc1cc(OCCCCn2ccnc2)ccc1C(C)C`, the IC50 is 2.57 µg/mL (≈ 9.43 µM). For `Cc1cccnc1NC(=S)Nc1ccc(Cl)c(Cl)c1` the value was 8.34 µg/mL (≈ 26.7 µM). For `CCC(C)NCCCCOc1ccc(Cl)cc1C(C)(C)C` (stereo not given) the value was 4.49 µg/mL (≈ 14.4 µM). Turning to `OCc1cn(-c2ccccc2)nc1-c1ccc2c(c1)OCCO2`, the half-maximal inhibitory concentration (IC50) was 6.9 µg/mL (≈ 22.4 µM). `COc1ccc(C(=O)NC(=S)NNC(=O)c2ccc(OC)c(OC)c2)cc1Br`: the IC50 is less than 0.1 µg/mL. `CCOC(=O)COc1ccc2cc(-c3nc4ccccc4o3)c(=O)oc2c1`: the 50% inhibitory concentration (IC50) was 3.3 µg/mL (≈ 9.03 µM). To `Clc1ccc(Cn2ncc3c(NCc4ccccc4)ncnc32)cc1` belongs 6.27 µg/mL (≈ 17.9 µM); to `CCC(=O)Oc1cccc2ccc(/C=C/c3ccccc3F)nc12`, less than 0.1 µg/mL; to `O=C(NCc1cccs1)c1cc2n(n1)C(C(F)(F)F)CC(c1ccc3c(c1)OCO3)N2` (stereo not given), 1.5 µg/mL (≈ 3.33 µM). For `Cc1cccc(C(=O)NC(=S)Nc2ccc([N+](=O)[O-])cc2O)c1` the value was 0.19 µg/mL (≈ 0.573 µM); for `O=C(CCNc1ccc(F)cc1)c1ccco1`, 5.39 µg/mL (≈ 23.1 µM). To `c1ccc(OCCCCn2cnc3ccccc32)cc1` belongs 16 µg/mL (≈ 60.2 µM); to `C=CCc1cc(Cl)ccc1OCCCCn1ccnc1`, 2.09 µg/mL (≈ 7.19 µM).

Turning to `CCOc1ccc2nc3cc(N)ccc3c(N)c2c1`, the IC50 was 0.81 µg/mL (≈ 3.2 µM). To `Cc1ccc(-c2csc3nc4c5ccccc5c(NCCCN5CCOCC5)nn4c(=O)c23)cc1` belongs > 50 µg/mL (inactive). To `O=C(Nc1nc2ccc(F)cc2s1)c1ccc([N+](=O)[O-])o1` belongs 5.11 µg/mL (≈ 16.6 µM); to `O=C(Oc1cccc2cccnc12)c1ccccc1Br`, 1.36 µg/mL (≈ 4.14 µM); to `Cc1cccc2sc(NC(=O)c3ccc(C(C)(C)C)cc3)nc12`, 1.39 µg/mL (≈ 4.28 µM). For `Cc1nc2cc(NCc3cccc([N+](=O)[O-])c3)ccc2n1Cc1ccccc1` the value was 5.75 µg/mL (≈ 15.4 µM); for `C=CCOc1c(Cl)cc(/C=C/[N+](=O)[O-])cc1OCC`, 23.4 µg/mL (≈ 82.5 µM).

On to `O=C(Nc1ccc2ccccc2c1)Nc1ccc2snnc2c1`, for which the 50% inhibitory concentration (IC50) was 0.9 µg/mL (≈ 2.81 µM). On to `CCOC(=O)Cn1cc(/C=C(/C#N)c2nc3ccc(OC)cc3[nH]2)c2ccccc21`, for which the IC50 was 0.74 µg/mL (≈ 1.85 µM). `CC(C)OC(=O)COc1ccc(-c2ccccc2)cc1`: the IC50 was > 50 µg/mL (inactive). With `CN(Cc1ccccc1)C(=S)NC(=O)c1cccs1`, the IC50 was 0.74 µg/mL (≈ 2.55 µM). To `CN(C)CCCNc1nn2c(=O)c3c(-c4ccc(Cl)cc4)csc3nc2c2ccccc12` belongs 35.1 µg/mL (≈ 75.5 µM).

Consider `C/C(=N/N=C1\NC(=O)C(Cc2cccc(C(F)(F)F)c2)S1)c1ccc(C)cc1` (stereo not given), for which the IC50 was 4.95 µg/mL (≈ 12.2 µM). For `CCOC(=O)c1c(NC(=O)c2c(F)c(F)c(F)c(F)c2F)sc(C(=O)OC)c1C` the value was 0.37 µg/mL (≈ 0.846 µM). To `Cc1cc(NC(=O)CSc2nnnn2-c2ccccc2C)no1` belongs 1.41 µg/mL (≈ 4.27 µM); to `O=C(CC1(O)C(=O)N(CCc2ccccc2)c2ccc(Cl)cc21)c1ccc2c(c1)OCCO2` (stereo not given), 7.71 µg/mL (≈ 16.6 µM).

Take `CCc1nc2ccccc2n1CC(O)COc1ccc(Br)cc1` (stereo not given): the 50% inhibitory concentration (IC50) was 4.11 µg/mL (≈ 11 µM). To `CCCOc1ccccc1NC(=O)Nc1ccc(Cl)c(Cl)c1` belongs 1.71 µg/mL (≈ 5.04 µM); to `O=C(NC1CCCCC1)c1cccc(N2C(=O)c3cccc4c([N+](=O)[O-])ccc(c34)C2=O)c1`, 0.39 µg/mL (≈ 0.879 µM); to `Cc1ccc(NC(=O)COc2ccc(F)cc2)cc1`, > 50 µg/mL (inactive). For `CCC(OC(C)=O)c1ccc(OC(C)=O)c(OC)c1` (stereo not given), the IC50 is 1.43 µg/mL (≈ 5.37 µM).

`CCN(CC)CCn1c(=N)n(CC(O)COc2ccc(Cl)cc2Cl)c2ccccc21` (stereo not given): the IC50 is 1.38 µg/mL (≈ 3.06 µM). To `CCOC(=O)c1cc(=O)c(-c2ccccc2)n[nH]1` belongs 3.8 µg/mL (≈ 15.6 µM); to `O=C(Nc1ccc(N2CCN(Cc3ccccc3)CC2)cc1)c1cccc(Cl)c1Cl`, 4.51 µg/mL (≈ 10.2 µM). For `COc1ccccc1OC(=O)c1sc2ccccc2c1Cl` the value was 1.37 µg/mL (≈ 4.3 µM); for `CCN(CC)c1ncnc2c1sc1nc(C)cc(C)c12`, > 50 µg/mL (inactive); for `O=C(COc1ccc(-c2ccccc2)cc1)OC1CCCCC1`, 0.65 µg/mL (≈ 2.09 µM). With `CCOC(=O)c1ccc(NC(=O)CSc2nnc(-c3ccc(OC)cc3)o2)cc1`, the half-inhibitory concentration (IC50) was 0.17 µg/mL (≈ 0.411 µM). `O=[N+]([O-])c1cccc(S(=O)(=O)Nc2cc(Br)c(O)c3ccccc23)c1`: the IC50 is 5.32 µg/mL (≈ 12.6 µM).
